Reference: paper PMC5429769, “Rational development of Stafib-2: a selective, nanomolar inhibitor of the transcription factor STAT5b” (Scientific Reports, 2017)
Changes are numbered by the printed parent chain.

Columns and labels:
Format in all cases: binding
[1] = biological target: T1, STAT5b Phe633Ala, Tyr665Ala (Homo sapiens, UniProt P51692, F633A/Y665A); assay: Isothermal titration calorimetry, STAT5b Phe633Ala, Tyr665Ala double mutant; settings: ITC, 25 °C, n = 3
T1 sequence (P51692 1-787 F633A/Y665A): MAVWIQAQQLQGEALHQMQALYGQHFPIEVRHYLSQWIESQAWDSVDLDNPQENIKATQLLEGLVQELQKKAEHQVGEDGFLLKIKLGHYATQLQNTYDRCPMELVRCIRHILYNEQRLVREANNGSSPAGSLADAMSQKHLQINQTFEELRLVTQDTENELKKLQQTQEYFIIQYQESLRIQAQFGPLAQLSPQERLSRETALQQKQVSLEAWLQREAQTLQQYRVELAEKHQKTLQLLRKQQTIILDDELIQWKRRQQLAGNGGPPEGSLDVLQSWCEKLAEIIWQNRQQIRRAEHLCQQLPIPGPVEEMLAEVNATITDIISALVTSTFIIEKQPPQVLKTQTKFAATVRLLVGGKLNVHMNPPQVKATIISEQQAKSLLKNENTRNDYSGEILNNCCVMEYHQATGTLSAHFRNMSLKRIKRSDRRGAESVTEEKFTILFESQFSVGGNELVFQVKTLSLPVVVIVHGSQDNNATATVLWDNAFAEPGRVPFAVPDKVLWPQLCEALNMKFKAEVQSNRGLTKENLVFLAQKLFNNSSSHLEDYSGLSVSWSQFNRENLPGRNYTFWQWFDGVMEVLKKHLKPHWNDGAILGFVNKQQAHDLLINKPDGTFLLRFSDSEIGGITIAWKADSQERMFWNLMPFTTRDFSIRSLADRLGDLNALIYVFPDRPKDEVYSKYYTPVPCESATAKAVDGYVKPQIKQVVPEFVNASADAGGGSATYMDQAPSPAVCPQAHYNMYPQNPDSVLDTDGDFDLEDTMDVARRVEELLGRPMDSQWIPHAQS

Lck SH2 = biological target: T2, Lck SH2 (Homo sapiens, UniProt P06239); assay: Fluorescence polarization assay, Lck SH2; settings: read-out: Lck SH2 maximum inhibition
T2 construct: the more distantly related SH2 domain of the tyrosine kinase Lck
T2 sequence (P06239 127-224 limits assumed): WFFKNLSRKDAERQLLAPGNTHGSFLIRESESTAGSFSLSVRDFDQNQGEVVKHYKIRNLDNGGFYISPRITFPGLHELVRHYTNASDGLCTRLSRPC

STAT5b Phe633Ala = biological target: T3, STAT5b Phe633Ala (Homo sapiens, UniProt P51692, F633A); assay: Isothermal titration calorimetry, STAT5b Phe633Ala; settings: ITC, 25 °C, n = 2
T3 sequence (P51692 1-787 F633A): T1 sequence (P51692 1-787 F633A/Y665A) with A665Y

STAT5a SH2 domain = biological target: T4, STAT5a SH2 domain (Homo sapiens, UniProt P42229); assay: Fluorescence polarization assay, STAT5a SH2 domain; settings: mean ± s.d.
T4 sequence (P42229 1-794): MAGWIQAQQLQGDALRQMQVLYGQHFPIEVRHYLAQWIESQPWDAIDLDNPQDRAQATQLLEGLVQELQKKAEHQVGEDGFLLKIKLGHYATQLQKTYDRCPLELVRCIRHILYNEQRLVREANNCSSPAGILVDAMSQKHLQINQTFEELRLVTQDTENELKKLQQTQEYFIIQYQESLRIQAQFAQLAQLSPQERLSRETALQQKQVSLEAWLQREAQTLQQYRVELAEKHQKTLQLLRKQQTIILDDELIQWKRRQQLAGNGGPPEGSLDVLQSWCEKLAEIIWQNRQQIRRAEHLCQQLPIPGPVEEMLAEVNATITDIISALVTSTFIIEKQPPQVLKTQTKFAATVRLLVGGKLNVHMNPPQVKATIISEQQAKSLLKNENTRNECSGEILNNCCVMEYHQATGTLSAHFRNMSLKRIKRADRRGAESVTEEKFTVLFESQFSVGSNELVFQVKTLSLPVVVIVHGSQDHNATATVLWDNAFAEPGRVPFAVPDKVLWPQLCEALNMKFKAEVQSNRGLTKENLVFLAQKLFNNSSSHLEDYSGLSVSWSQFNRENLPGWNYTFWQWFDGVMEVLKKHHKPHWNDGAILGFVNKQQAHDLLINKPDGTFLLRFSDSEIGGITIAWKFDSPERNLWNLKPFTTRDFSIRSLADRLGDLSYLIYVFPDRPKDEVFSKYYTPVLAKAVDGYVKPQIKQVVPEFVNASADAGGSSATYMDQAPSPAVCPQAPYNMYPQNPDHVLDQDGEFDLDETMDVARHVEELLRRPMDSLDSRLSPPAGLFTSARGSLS

STAT5a wild-type = biological target: T5, STAT5a wild-type (Homo sapiens, UniProt P42229); assay: Isothermal titration calorimetry, STAT5a wild-type
T5 sequence (P42229 1-794): T4 sequence (P42229 1-794)

Q: `O=C(COc1ccc(C(=O)Nc2ccc(Oc3ccccc3)cc2)cc1)NCc1ccc(OP(=O)(O)O)c(OP(=O)(O)O)c1` [compound 4, 4-((2-(4-((4-phenoxyphenyl)carbamoyl)phenoxy)acetamido)methyl)-1,2-phenylene bis(dihydrogen phosphate)] was tested. Which Kd [1] did it give?
A: 3.8 ± 1.7 µM

Q: And the ΔH [1]?
A: -5.1 ± 0.5 kcal/mol

Q: What about the “−TΔS” value [1] of the same molecule?
A: -2.4 ± 0.3 kcal/mol

Q: What about the inhibition at 40 µM (Lck SH2) of the same molecule?
A: 25 ± 2%

Q: What about the Kd (STAT5b Phe633Ala) of the same molecule?
A: 1.65 ± 0.02 µM

Q: What about the ΔH (STAT5b Phe633Ala) of the same molecule?
A: -4.3 ± 0.2 kcal/mol

Q: And the “−TΔS” value (STAT5b Phe633Ala)?
A: -3.6 ± 0.2 kcal/mol

Q: And the Ki (STAT5a SH2 domain; converted from IC50 using the published equation, n = 3)?
A: 1.3 ± 0.1 µM

Q: What about the IC50 (STAT5a SH2 domain; fluorescence polarization, three independent experiments) of the same molecule?
A: 2.7 ± 0.2 µM

Q: What about the “fold lower affinity for STAT5a than for STAT5b” value (STAT5a wild-type; ITC Kd STAT5a vs wild-type STAT5b) of the same molecule?
A: approximately 20 fold

Q: And the Kd (STAT5a wild-type; ITC, 25 °C, STAT5a)?
A: 6.1 ± 3.2 µM
